Results as given in patent US9169254B2, “Spiroimidazolone derivative” (Chugai Seiyaku Kabushiki Kaisha, priority 2009, dated 2015).

target: T1, human PTH1 receptor (Homo sapiens, UniProt Q03431); assay: In vitro cAMP signal activity in HKRK-B7 cells (LLC-PK1 cells overexpressing the human PTH1 receptor); format: cell-based; details: HKRK-B7 cells; compound at 1×10^−3 M; cAMP produced as percentage of that produced by hPTH(1-34) at 100 nM
T1 sequence (Q03431 27-593): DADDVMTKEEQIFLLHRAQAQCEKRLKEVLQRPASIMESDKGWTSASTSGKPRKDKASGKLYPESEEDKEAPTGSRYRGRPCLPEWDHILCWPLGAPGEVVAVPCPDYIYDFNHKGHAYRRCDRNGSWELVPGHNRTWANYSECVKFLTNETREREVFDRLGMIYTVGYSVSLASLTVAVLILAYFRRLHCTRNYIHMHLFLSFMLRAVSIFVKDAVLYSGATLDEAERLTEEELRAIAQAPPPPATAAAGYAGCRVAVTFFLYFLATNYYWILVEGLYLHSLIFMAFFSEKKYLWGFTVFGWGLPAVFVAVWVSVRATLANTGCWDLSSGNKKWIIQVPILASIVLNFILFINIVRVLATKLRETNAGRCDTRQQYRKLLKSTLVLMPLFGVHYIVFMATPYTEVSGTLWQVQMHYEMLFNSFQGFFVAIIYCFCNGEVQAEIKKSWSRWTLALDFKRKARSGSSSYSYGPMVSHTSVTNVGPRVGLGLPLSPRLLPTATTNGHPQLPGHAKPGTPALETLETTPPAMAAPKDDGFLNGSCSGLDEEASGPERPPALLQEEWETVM

SMILES	cAMP production activity (%)
Cc1cc(N(C)C(N)=O)cc(C)c1/C=C/S(=O)(=O)N1CCC2(CC1)N=C(c1cccc(OC(F)(F)C(F)F)c1)NC2=O [Compound 1018, 1-[3,5-dimethyl-4-((E)-2-{4-oxo-2-[3-(1,1,2,2-tetrafluoro-ethoxy)-phenyl]-1,3,8-triaza-spiro[4.5]dec-1-ene-8-sulfonyl}-vinyl)-phenyl]-1-methyl-urea]	109%
Cc1cc(N(C)C(N)=O)cc(C)c1/C=C/S(=O)(=O)N1CCC2(CC1)N=C(c1cccc(OCCCC(F)(F)F)c1)NC2=O [Compound 1019, 1-[3,5-dimethyl-4-((E)-2-{4-oxo-2-[3-(4,4,4-trifluoro-butoxy)-phenyl]-1,3,8-triaza-spiro[4.5]dec-1-ene-8-sulfonyl}-vinyl)-phenyl]-1-methyl-urea]	72%
Cc1cc(N(C)C(N)=O)cc(C)c1/C=C/S(=O)(=O)N1CCC2(CC1)N=C(c1ccc(OCCCC(F)(F)F)cc1)NC2=O [Compound 1020, 1-[3,5-dimethyl-4-((E)-2-{4-oxo-2-[4-(4,4,4-trifluoro-butoxy)-phenyl]-1,3,8-triaza-spiro[4.5]dec-1-ene-8-sulfonyl}-vinyl)-phenyl]-1-methyl-urea]	81%
CCCCCc1ccc(C2=NC3(CCN(S(=O)(=O)/C=C/c4c(C)cc(N(C)C(N)=O)cc4C)CC3)C(=O)N2)cc1 [Compound 1021, 1-(3,5-dimethyl-4-{(E)-2-[4-oxo-2-(4-pentyl-phenyl)-1,3,8-triaza-spiro[4.5]dec-1-ene-8-sulfonyl]-vinyl}-phenyl)-1-methyl-urea]	137%
CSCCCCCCCC1=NC2(CCN(S(=O)(=O)/C=C/c3c(C)cc(N(C)C(N)=O)cc3C)CC2)C(=O)N1 [Compound 1022, 1-(3,5-Dimethyl-4-{(E)-2-[2-(7-methylsulfanyl-heptyl)-4-oxo-1,3,8-triaza-spiro[4.5]dec-1-ene-8-sulfonyl]-vinyl}-phenyl)-1-methyl-urea]	105%
Cc1cc(N(C)C(N)=O)cc(C)c1/C=C/S(=O)(=O)N1CCC2(CC1)N=C(CCCCCCCCC1(C)COC1)NC2=O [Compound 1023, 1-[3,5-Dimethyl-4-((E)-2-{2-[8-(3-methyl-oxetan-3-yl)-octyl]-4-oxo-1,3,8-triaza-spiro[4.5]dec-1-ene-8-sulfonyl}-vinyl)-phenyl]-1-methyl-urea]	92%
CCCCC#CCCCC1=NC2(CCN(S(=O)(=O)/C=C/c3c(C)cc(N(C)C(N)=O)cc3C)CC2)C(=O)N1 [Compound 1024, 1-{3,5-dimethyl-4-[(E)-2-(2-non-4-ynyl-4-oxo-1,3,8-triaza-spiro[4.5]dec-1-ene-8-sulfonyl)-vinyl]-phenyl}-1-methyl-urea]	66%
CCCCCC#CCCC1=NC2(CCN(S(=O)(=O)/C=C/c3c(C)cc(N(C)C(N)=O)cc3C)CC2)C(=O)N1 [Compound 1025, 1-{3,5-dimethyl-4-[(E)-2-(2-non-3-ynyl-4-oxo-1,3,8-triaza-spiro[4.5]dec-1-ene-8-sulfonyl)-vinyl]-phenyl}-1-methyl-urea]	114%
CCCCCCCC#CC1=NC2(CCN(S(=O)(=O)/C=C/c3c(C)cc(N(C)C(N)=O)cc3C)CC2)C(=O)N1 [Compound 1027, 1-{3,5-dimethyl-4-[(E)-2-(2-non-1-ynyl-4-oxo-1,3,8-triaza-spiro[4.5]dec-1-ene-8-sulfonyl)-vinyl]-phenyl}-1-methyl-urea]	82%
Cc1cc(N(C)C(N)=O)cc(C)c1CCS(=O)(=O)N1CCC2(CC1)N=C(c1ccc(F)c(OC(F)(F)F)c1)NC2=O [Compound 1028, 1-(4-{2-[2-(4-Fluoro-3-trifluoromethoxy-phenyl)-4-oxo-1,3,8-triaza-spiro[4.5]dec-1-ene-8-sulfonyl]-ethyl}-3,5-dimethyl-phenyl)-1-methyl-urea]	75%
Cc1cc(N(C)C(N)=O)cc(C)c1CCS(=O)(=O)N1CCC2(CC1)N=C(c1ccc3c(c1)OC(F)(F)O3)NC2=O [Compound 1029, 1-(4-{2-[2-(2,2-difluoro-benzo[1,3]dioxol-5-yl)-4-oxo-1,3,8-triaza-spiro[4.5]dec-1-ene-8-sulfonyl]-ethyl}-3,5-dimethyl-phenyl)-1-methyl-urea]	104%
Cc1cc(N(C)C(N)=O)cc(C)c1CCS(=O)(=O)N1CCC2(CC1)N=C(c1ccc(C(C)(C)C)cc1)NC2=O [Compound 1030, 1-(4-{2-[2-(4-tert-butyl-phenyl)-4-oxo-1,3,8-triaza-spiro[4.5]dec-1-ene-8-sulfonyl]-ethyl}-3,5-dimethyl-phenyl)-1-methyl-urea]	115%
Cc1cc(N(C)C(N)=O)cc(C)c1CCS(=O)(=O)N1CCC2(CC1)N=C(CCCCCCCCC1(C)COC1)NC2=O [Compound 1031, 1-[3,5-Dimethyl-4-(2-{2-[8-(3-methyl-oxetan-3-yl)-octyl]-4-oxo-1,3,8-triaza-spiro[4.5]dec-1-ene-8-sulfonyl}-ethyl)-phenyl]-1-methyl-urea]	111%
Cc1cc(N(C)C(N)=O)cc(C)c1CCS(=O)(=O)N1CCC2(CC1)N=C(CCCCCCCCCCC1(C)COC1)NC2=O [Compound 1032, 1-[3,5-dimethyl-4-(2-{2-[10-(3-methyl-oxetan-3-yl)-decyl]-4-oxo-1,3,8-triaza-spiro[4.5]dec-1-ene-8-sulfonyl}-ethyl)-phenyl]-1-methyl-urea]	88%
Cc1cc(N(C)C(=O)OC(C)(C)C)cc(C)c1CCS(=O)(=O)N1CCC2(CC1)N=C(C1CCCN1C(=O)OC(C)(C)C)NC2=O (centres unmarked) [Compound 1033, 2-(8-{2-[4-(tert-Butoxycarbonyl-methyl-amino)-2,6-dimethyl-phenyl]-ethanesulfonyl}-4-oxo-1,3,8-triaza-spiro[4.5]dec-1-en-2-yl)-pyrrolidine-1-carboxylic acid tert-butyl ester]	22%
Cc1cc(N(C)C(=O)OC(C)(C)C)cc(C)c1CCS(=O)(=O)N1CCC2(CC1)N=C(C(C)(F)F)NC2=O [Compound 1034, (4-{2-[2-(1,1-difluoro-ethyl)-4-oxo-1,3,8-triaza-spiro[4.5]dec-1-ene-8-sulfonyl]-ethyl}-3,5-dimethyl-phenyl)-methyl-carbamic acid tert-butyl ester]	54%
CNc1cc(C)c(CCS(=O)(=O)N2CCC3(CC2)N=C(CCCCCCCC(F)(F)C(F)(F)F)NC3=O)c(C)c1 [Compound 1035, 8-[2-(2,6-Dimethyl-4-methylamino-phenyl)-ethanesulfonyl]-2-(8,8,9,9,9-pentafluoro-nonyl)-1,3,8-triaza-spiro[4.5]dec-1-en-4-one]	77%
CNc1cc(C)c(CCS(=O)(=O)N2CCC3(CC2)N=C(c2cccc(SC(F)(F)F)c2)NC3=O)c(C)c1 [Compound 1036, 8-[2-(2,6-dimethyl-4-methylamino-phenyl)-ethanesulfonyl]-2-(3-trifluoromethylsulfanyl-phenyl)-1,3,8-triaza-spiro[4.5]dec-1-en-4-one]	82%
CNc1cc(C)c(CCS(=O)(=O)N2CCC3(CC2)N=C(C2CCC(=C(C)C)CC2)NC3=O)c(C)c1 (centres unmarked) [Compound 1037, 8-[2-(2,6-Dimethyl-4-methylamino-phenyl)-ethanesulfonyl]-2-(4-isopropylidene-cyclohexyl)-1,3,8-triaza-spiro[4.5]dec-1-en-4-one]	87%
Cc1cc(N(C)C(N)=O)cc(C)c1CCS(=O)(=O)N1CCC2(CC1)N=C(c1cccc(OC(F)(F)C(F)F)c1)NC2=O [Compound 1038, 1-[3,5-Dimethyl-4-(2-{4-oxo-2-[3-(1,1,2,2-tetrafluoro-ethoxy)-phenyl]-1,3,8-triaza-spiro[4.5]dec-1-ene-8-sulfonyl}-ethyl)-phenyl]-1-methyl-urea]	111%
Cc1cc(N(C)C(N)=O)cc(C)c1CCS(=O)(=O)N1CCC2(CC1)N=C(c1ccc3c(c1)CCCC3)NC2=O [Compound 1039, 1-(3,5-Dimethyl-4-{2-[4-oxo-2-(5,6,7,8-tetrahydro-naphthalen-2-yl)-1,3,8-triaza-spiro[4.5]dec-1-ene-8-sulfonyl]-ethyl}-phenyl)-1-methyl-urea]	103%
Cc1cc(N(C)C(N)=O)cc(C)c1CCS(=O)(=O)N1CCC2(CC1)N=C([C@@H]1C[C@H](C)C[C@H](C)C1)NC2=O [Compound 1040, 1-(4-{2-[2-((1S,3S,5R)-3,5-dimethyl-cyclohexyl)-4-oxo-1,3,8-triaza-spiro[4.5]dec-1-ene-8-sulfonyl]-ethyl}-3,5-dimethyl-phenyl)-1-methyl-urea]	111%
CCCC(CCC)C1=NC2(CCN(S(=O)(=O)CCc3c(C)cc(N(C)C(N)=O)cc3C)CC2)C(=O)N1 [Compound 1041, 1-(3,5-dimethyl-4-{2-[4-oxo-2-(1-propyl-butyl)-1,3,8-triaza-spiro[4.5]dec-1-ene-8-sulfonyl]-ethyl}-phenyl)-1-methyl-urea]	38%
